Laboratory results reported in ChEMBL document CHEMBL1140453, “Solid-phase synthesis and thermal denaturation study of cyclic PNAs targeting the HIV-1 TAR RNA loop” (Bioorg Med Chem Lett, 2007).

Assays:
Nucleic Acid [1] = test: Binding affinity to HIV1 3B mini TAR RNA assessed as melting temperature by UV spectrometry based thermal denaturation assay; assay type: nucleic-acid assay; conditions: Human immunodeficiency virus 1
Nucleic Acid [2] = test: Binding affinity to HIV1 3B mini TAR RNA assessed as change in melting temperature by UV spectrometry based thermal denaturation assay; assay type: nucleic-acid assay; conditions: Human immunodeficiency virus 1

Row | Tm (Nucleic Acid [1]) [°C] | ΔTm (Nucleic Acid [2]) [°C] | Compound
1 | 43.2 | – | Cc1cn(CC(=O)N(CCNC(=O)CN(CCNC(=O)[C@@H](N)CCCCN)C(=O)Cn2cnc3c(=O)[nH]c(N)nc32)CC(=O)NCCN(CC(=O)NCCN(CC(=O)NCCN(CC(=O)NCCN(CC(=O)NCCN(CC(=O)NCCN(CC(=O)N[C@@H](CCC(N)=O)C(=O)O)C(=O)Cn2cnc3c(N)ncnc32)C(=O)Cn2cnc3c(=O)[nH]c(N)nc32)C(=O)Cn2cnc3c(N)ncnc32)C(=O)Cn2ccc(N)nc2=O)C(=O)Cn2cnc3c(N)ncnc32)C(=O)Cn2ccc(N)nc2=O)c(=O)[nH]c1=O
2 | 40.5 | 0.5 | Cc1cn(CC(=O)N(CCNC(=O)CN(CCNC(=O)[C@@H](N)CCCCN)C(=O)Cn2cnc3c(=O)[nH]c(N)nc32)CC(=O)NCCN(CC(=O)NCCN(CC(=O)NCCN(CC(=O)NCCN(CC(=O)NCCN(CC(=O)NCCN(CC(=O)N[C@@H](CCC(N)=O)C(=O)O)C(=O)Cn2cnc3c(N)ncnc32)C(=O)Cn2cnc3c(=O)[nH]c(N)nc32)C(=O)Cn2cnc3c(N)ncnc32)C(=O)Cn2ccc(N)nc2=O)C(=O)Cn2ccc(N)nc2=O)C(=O)Cn2ccc(N)nc2=O)c(=O)[nH]c1=O
